The subject of one experiment is E. coli. Kind of experiment: Range of MIC for E. coli strains. The following applies: Escherichia coli.
Another experiment has as its system Staph. Description: Range of MIC for Staph. strains, including MRSA. The following applies: Staphylococcus aureus.
The next experiment relates to Staph. aureus Smith. Kind of experiment: In vivo activity (oral, iv; ED50) against Staph. aureus Smith in mice.
[1] abbreviates: 20 h, read-out: Range of MIC, E. coli (Mouse Serum).
Setting [2] is: read-out: Range of MIC, E. coli (Water).
Setting [3] is: MRSA, read-out: Range of MIC, Staph (Mouse Serum).
Setting [4] is: MRSA, read-out: Range of MIC, Staph (Water).
Setting [5] is: Staphylococcus aureus, in Mus musculus, po, read-out: ED50 Staph Smith SOD.
Where [6] appears, read: iv, read-out: ED50 Staph Smith SIV.
The mark [7] stands for this setting: read-out: Minimum inhibitory concentration (MIC), E. coli (mouse serum).
Where [8] appears, read: read-out: Minimum inhibitory concentration (MIC), E. coli (water).
The mark [9] stands for this setting: MRSA, read-out: Minimum inhibitory concentration (MIC), Staph. (mouse serum).
[10] abbreviates: MRSA, read-out: Minimum inhibitory concentration (MIC), Staph. (water).

In brackets after ≈: the same amount, converted by molar mass. Where two headings read alike, the source gives them in different places.

Method for Staph. aureus Smith: Representative examples of compounds of Formula I were tested for the oral efficacy using S. aureus Smith in mice.

Take `CCCCN(CC(=O)Nc1cc(N(C)C)c2c(c1O)C(=O)C1=C(O)[C@]3(O)C(=O)C(C(N)=O)=C(O)[C@@H](N(C)C)C3CC1C2)C(=O)OCc1oc(=O)oc1-c1ccccc1` (stereo partly drawn) [Example 112, (2-oxo-5-phenyl-1,3-dioxol-4-yl)methyl 2-{[(7S,10aS)-9-(aminocarbonyl)-4,7-bis(dimethylamino)-1,8,10a,11-tetrahydroxy-10,12-dioxo-5,5a,6,6a,7,10,10a,12-octahydrotetracen-2-yl]amino}-2-oxoethyl(butyl)carbamate]: the MIC was in the range of 1 to 4 µg/mL (≈ 1.24 to 4.98 µM) in the experiment on E. coli (setting [1]), 2 to 8 µg/mL (≈ 2.49 to 9.95 µM) with E. coli (setting [2]), 2 to 8 µg/mL (≈ 2.49 to 9.95 µM) with Staph. (setting [3]) and 4 to 16 µg/mL (≈ 4.98 to 19.9 µM) in the experiment with Staph. (setting [4]). Also, the median effective dose (ED50) (usually the dose that gives a 50% effect, or the effect in half of the subjects) in the experiment with Staph. aureus Smith (setting [5]) came out at 6.12 mg/kg; in the experiment with Staph. aureus Smith (setting [6]), 0.48 mg/kg.
Regarding `CCCCN(CC(=O)Nc1cc(N(C)C)c2c(c1O)C(=O)C1=C(O)[C@]3(O)C(=O)C(C(N)=O)=C(O)[C@@H](N(C)C)C3CC1C2)C(=O)OCOC(=O)C1CCCCC1` (stereo partly drawn) [Example 34, ({[(2-{[(7S,10aS)-9-(aminocarbonyl)-4,7-bis(dimethylamino)-1,8,10a,11-tetrahydroxy-10,12-dioxo-5,5a,6,6a,7,10,10a,12-octahydrotetracen-2-yl]amino}-2-oxoethyl)(butyl)amino]carbonyl}oxy)methyl cyclohexanecarboxylate], the MIC is 0.5 to 1 µg/mL (≈ 0.649 to 1.3 µM) with E. coli (setting [1]); 0.5 to 1 µg/mL (≈ 0.649 to 1.3 µM) in the experiment with E. coli (setting [7]); 4 to 16 µg/mL (≈ 5.2 to 20.8 µM) with E. coli (setting [8]); 4 to 16 µg/mL (≈ 5.2 to 20.8 µM) with E. coli (setting [2]); 0.25 to 4 µg/mL (≈ 0.325 to 5.2 µM) in the experiment on Staph. (setting [9]); 0.25 to 4 µg/mL (≈ 0.325 to 5.2 µM) in the experiment on Staph. (setting [10]). Moreover, the MIC in the experiment on Staph. (setting [3]) and in the experiment on Staph. (setting [4]) was 0.25 to 4 µg/mL (≈ 0.325 to 5.2 µM) throughout. Besides, the ED50 with Staph. aureus Smith (setting [5]) worked out at 12.9 mg/kg; in the experiment with Staph. aureus Smith (setting [6]) it was 0.71 mg/kg.
Turning to `CN(C)c1cc(NC(=O)CN(C(=O)OCOC(=O)c2ccc(N3CCCC3)cc2)C(C)(C)C)c(O)c2c1C[C@H]1C[C@H]3[C@H](N(C)C)C(O)=C(C(N)=O)C(=O)[C@@]3(O)C(O)=C1C2=O` [Example 93, ({[(2-{[(5aR,6aS,7S,10aS)-9-(aminocarbonyl)-4,7-bis(dimethylamino)-1,8,10a,11-tetrahydroxy-10,12-dioxo-5,5a,6,6a,7,10,10a,12-octahydrotetracen-2-yl]amino}-2-oxoethyl)(tert-butyl)amino]carbonyl}oxy)methyl 4-pyrrolidin-1-ylbenzoate], the MIC with E. coli (setting [1]) lay within 1 to 4 µg/mL (≈ 1.2 to 4.8 µM); in the experiment on Staph. (setting [3]), 1 to 2 µg/mL (≈ 1.2 to 2.4 µM); in the experiment on Staph. (setting [4]), 32 to 64 µg/mL (≈ 38.4 to 76.8 µM). The 50% effective dose (ED50) was greater than 32 mg/kg with Staph. aureus Smith (setting [5]) and 0.5 to 1 mg/kg in the experiment on Staph. aureus Smith (setting [6]).
With `CN(C)c1cc(NC(=O)CN(C(=O)OCOC(=O)c2ccccc2F)C(C)(C)C)c(O)c2c1C[C@H]1C[C@H]3[C@H](N(C)C)C(O)=C(C(N)=O)C(=O)[C@@]3(O)C(O)=C1C2=O` [Example 91, ({[(2-{[(5aR,6aS,7S,10aS)-9-(aminocarbonyl)-4,7-bis(dimethylamino)-1,8,10a,11-tetrahydroxy-10,12-dioxo-5,5a,6,6a,7,10,10a,12-octahydrotetracen-2-yl]amino}-2-oxoethyl)(tert-butyl)amino]carbonyl}oxy)methyl 2-fluorobenzoate], the MIC is 0.5 to 2 µg/mL (≈ 0.64 to 2.56 µM) with E. coli (setting [1]), greater than 64 µg/mL in the experiment on E. coli (setting [2]), 0.12 to 0.25 µg/mL (≈ 0.153 to 0.32 µM) in the experiment on Staph. (setting [3]) and 0.25 to 2 µg/mL (≈ 0.32 to 2.56 µM) in the experiment with Staph. (setting [4]). Further, the figures for the ED50 in the experiment with Staph. aureus Smith (setting [5]) and with Staph. aureus Smith (setting [6]) were 11.7 mg/kg and 1.21 mg/kg, respectively.
For the molecule `CCCCN(CC(=O)Nc1cc(N(C)C)c2c(c1O)C(=O)C1=C(O)[C@]3(O)C(=O)C(C(N)=O)=C(O)[C@@H](N(C)C)[C@@H]3C[C@@H]1C2)C(=O)OCOC(=O)C1CCC1` [Example 18, ({[(2-{[(5aR,6aS,7S,10aS)-9-(aminocarbonyl)-4,7-bis(dimethylamino)-1,8,10a,11-tetrahydroxy-10,12-dioxo-5,5a,6,6a,7,10,10a,12-octahydrotetracen-2-yl]amino}-2-oxoethyl)(butyl)amino]carbonyl}oxy)methyl cyclobutanecarboxylate], the MIC with E. coli (setting [1]) was 0.5 to 2 µg/mL (≈ 0.674 to 2.7 µM); in the experiment on E. coli (setting [7]) it was 0.5 to 2 µg/mL (≈ 0.674 to 2.7 µM); in the experiment with E. coli (setting [8]) it was 4 to 8 µg/mL (≈ 5.39 to 10.8 µM); with E. coli (setting [2]) it was 4 to 8 µg/mL (≈ 5.39 to 10.8 µM); in the experiment on Staph. (setting [9]), 1 to 4 µg/mL (≈ 1.35 to 5.39 µM); with Staph. (setting [10]) it was 1 to 4 µg/mL (≈ 1.35 to 5.39 µM). For the same molecule, the MIC in the experiment with Staph. (setting [3]) and in the experiment on Staph. (setting [4]) was 1 to 4 µg/mL (≈ 1.35 to 5.39 µM) in each case. In addition, the 50% effective dose (ED50) in the experiment with Staph. aureus Smith (setting [5]) worked out at 29 mg/kg; with Staph. aureus Smith (setting [6]), 0.6 mg/kg.
With `CCCN(CC(=O)Nc1cc(N(C)C)c2c(c1O)C(=O)C1=C(O)[C@]3(O)C(=O)C(C(N)=O)=C(O)[C@@H](N(C)C)[C@@H]3C[C@@H]1C2)C(=O)OCOC(=O)C12CC3CC(CC(C3)C1)C2` [Example 41, ({[(2-{[(5aR,6aS,7S,10aS)-9-(aminocarbonyl)-4,7-bis(dimethylamino)-1,8,10a,11-tetrahydroxy-10,12-dioxo-5,5a,6,6a,7,10,10a,12-octahydrotetracen-2-yl]amino}-2-oxoethyl)(propyl)amino]carbonyl}oxy)methyl adamantane-1-carboxylate], the MIC in the experiment with E. coli (setting [1]) is 0.5 to 4 µg/mL (≈ 0.619 to 4.95 µM); with E. coli (setting [2]), 16 to 64 µg/mL (≈ 19.8 to 79.2 µM); in the experiment with E. coli (read-out: Range of MIC, E. coli (mouse serum)) it was 0.5 to 4 µg/mL (≈ 0.619 to 4.95 µM); in the experiment with E. coli (read-out: Range of MIC, E. coli (water)) it was 16 to 64 µg/mL (≈ 19.8 to 79.2 µM); in the experiment on Staph. (setting [3]), 0.5 to 4 µg/mL (≈ 0.619 to 4.95 µM); in the experiment on Staph. (setting [4]), 1 to 8 µg/mL (≈ 1.24 to 9.9 µM). Further, the MIC is 0.5 to 4 µg/mL (≈ 0.619 to 4.95 µM) in the experiment with Staph. (MRSA, read-out: Range of MIC, Staph. (mouse serum)) and 1 to 8 µg/mL (≈ 1.24 to 9.9 µM) with Staph. (MRSA, read-out: Range of MIC, Staph. (water)). Also, the results for the 50% effective dose (ED50) with Staph. aureus Smith (setting [5]) and in the experiment with Staph. aureus Smith (setting [6]) were 11.3 mg/kg and 0.83 mg/kg, respectively.
As for `CN(C)c1cc(NC(=O)CN(C(=O)OCOC(=O)C2CC2)C(C)(C)C)c(O)c2c1C[C@H]1C[C@H]3[C@H](N(C)C)C(O)=C(C(N)=O)C(=O)[C@@]3(O)C(O)=C1C2=O` [Example 56, ({[(2-{[(5aR,6aS,7S,10aS)-9-(aminocarbonyl)-4,7-bis(dimethylamino)-1,8,10a,11-tetrahydroxy-10,12-dioxo-5,5a,6,6a,7,10,10a,12-octahydrotetracen-2-yl]amino}-2-oxoethyl)(tert-butyl)amino]carbonyl}oxy)methyl cyclopropanecarboxylate], the MIC lay within 0.25 to 2 µg/mL (≈ 0.344 to 2.75 µM) in the experiment on E. coli (setting [1]); 4 to 32 µg/mL (≈ 5.5 to 44 µM) in the experiment on E. coli (read-out: Minimum inhibitory concentration (MIC), E. coli (Human Serum)); 0.25 to 1 µg/mL (≈ 0.344 to 1.37 µM) in the experiment with Staph. (setting [3]); 1 to 4 µg/mL (≈ 1.37 to 5.5 µM) in the experiment on Staph. (setting [4]); 0.25 to 2 µg/mL (≈ 0.344 to 2.75 µM) with Staph. (read-out: Minimum inhibitory concentration (MIC), Staph (Human Serum)); 1 to 4 µg/mL (≈ 1.37 to 5.5 µM) in the experiment with Staph. (read-out: Minimum inhibitory concentration (MIC), Staph (Water)). Further, the 50% effective dose (ED50) in the experiment with Staph. aureus Smith (setting [5]) is greater than 16 mg/kg; in the experiment with Staph. aureus Smith (setting [6]) it was 0.79 mg/kg.
As for `CCCCN(CC(=O)Nc1cc(N(C)C)c2c(c1O)C(=O)C1=C(O)[C@]3(O)C(=O)C(C(N)=O)=C(O)[C@@H](N(C)C)[C@@H]3C[C@@H]1C2)C(=O)OCOC(=O)c1ccc(C(C)(C)C)cc1` [Example 20, ({[(2-{[(5aR,6aS,7S,10aS)-9-(aminocarbonyl)-4,7-bis(dimethylamino)-1,8,10a,11-tetrahydroxy-10,12-dioxo-5,5a,6,6a,7,10,10a,12-octahydrotetracen-2-yl]amino}-2-oxoethyl)(butyl)amino]carbonyl}oxy)methyl 4-tert-butylbenzoate], the MIC in the experiment with E. coli (setting [1]) was 0.5 to 2 µg/mL (≈ 0.61 to 2.44 µM); with E. coli (setting [7]), 0.5 to 2 µg/mL (≈ 0.61 to 2.44 µM); in the experiment on E. coli (setting [8]), greater than 64 µg/mL; in the experiment with E. coli (setting [2]) it was greater than 64 µg/mL; in the experiment with Staph. (setting [9]), 1 to 4 µg/mL (≈ 1.22 to 4.88 µM); in the experiment on Staph. (setting [3]), 1 to 4 µg/mL (≈ 1.22 to 4.88 µM). Further, the median effective dose (ED50) with Staph. aureus Smith (setting [5]) was 19.4 mg/kg; in the experiment on Staph. aureus Smith (setting [6]) it was 0.6 mg/kg.
Take `CN(C)c1cc(NC(=O)CN(C(=O)OCOC(=O)c2ccccc2C(F)(F)F)C(C)(C)C)c(O)c2c1C[C@H]1C[C@H]3[C@H](N(C)C)C(O)=C(C(N)=O)C(=O)[C@@]3(O)C(O)=C1C2=O` [Example 92]: the MIC is 4 to 8 µg/mL (≈ 4.81 to 9.62 µM) with E. coli (setting [1]), greater than 64 µg/mL in the experiment with E. coli (setting [2]), 4 µg/mL (≈ 4.81 µM) in the experiment on Staph. (setting [3]) and 8 to 32 µg/mL (≈ 9.62 to 38.5 µM) in the experiment with Staph. (setting [4]).
The like results for `CCCN(CC(=O)Nc1cc(N(C)C)c2c(c1O)C(=O)C1=C(O)[C@]3(O)C(=O)C(C(N)=O)=C(O)[C@@H](N(C)C)C3CC1C2)C(=O)OCc1oc(=O)oc1-c1ccc(OC)cc1` (stereo partly drawn) [Example 111, [5-(4-methoxyphenyl)-2-oxo-1,3-dioxol-4-yl]methyl 2-{[(7S,10aS)-9-(aminocarbonyl)-4,7-bis(dimethylamino)-1,8,10a,11-tetrahydroxy-10,12-dioxo-5,5a,6,6a,7,10,10a, 12-octahydrotetracen-2-yl]amino}-2-oxoethyl(propyl)carbamate] were, in that order, 0.25 to 1 µg/mL (≈ 0.305 to 1.22 µM), 1 to 4 µg/mL (≈ 1.22 to 4.88 µM), 0.5 to 8 µg/mL (≈ 0.61 to 9.76 µM) and 1 to 16 µg/mL (≈ 1.22 to 19.5 µM).
The like results for `CN(C)c1cc(NC(=O)CN(C(=O)OCOC(=O)c2ccncc2)C(C)(C)C)c(O)c2c1C[C@H]1C[C@H]3[C@H](N(C)C)C(O)=C(C(N)=O)C(=O)[C@@]3(O)C(O)=C1C2=O` [Example 89, ({[(2-{[(5aR,6aS,7S,10aS)-9-(aminocarbonyl)-4,7-bis(dimethylamino)-1,8,10a,11-tetrahydroxy-10,12-dioxo-5,5a,6,6a,7,10,10a,12-octahydrotetracen-2-yl]amino}-2-oxoethyl)(tert-butyl)amino]carbonyl}oxy)methyl isonicotinate] were, in that order, 0.25 to 1 µg/mL (≈ 0.327 to 1.31 µM), 4 to 8 µg/mL (≈ 5.23 to 10.5 µM), 0.5 to 1 µg/mL (≈ 0.654 to 1.31 µM) and 1 to 4 µg/mL (≈ 1.31 to 5.23 µM).
